One assay concerns APP. Put plainly: Western blot of APP holo-protein and C-terminal fragments in brain extracts. Format: in vivo, mice. The following applies: cortical lysates, versus vehicle. The protocol:
Brain tissue was homogenized in 8M urea. Total protein concentration was determined using the Bradford assay and BSA as standard. Proteins were separated on 8 or 15% SDS page gels, transferred to PVDF membrane and incubated with antibodies: anti-APP^645-694 G369 (1:4000), anti α-tubulin (T-9026, Sigma) (1:5000). Signals were detected using the ECL Kit (Amersham), band intensities calculated using Image J software (ImageJ 1.31V), and normalized to α-tubulin values.

The test system of the next assay is microglial marker Mac1. The experiment in a line: Glial activation: Mac1 staining of brain sections. The assay is classed as in vivo, mice. The protocol: The effects of DSP4 treatment on glial activation were assessed in hippocampus and frontal cortex by staining for microglial marker Mac1 and astrocyte marker GFAP (FIG. 3). Sections from vehicle and DSP4 treated H6 mice brains were stained with antibodies directed against Mac1 to assess microglial activation (FIG. 3A-C); and GFAP to assess astrocyte activation (FIG. 3D-F). […] FIGS. 3G-3I show quantitative analysis of Mac1 (FIG. 3G-3H) and GFAP staining (FIG. 31).
Hemibrains were fixed overnight in 4% paraformaldehyde in 0.1M phosphate buffer, then overnight in 10% sucrose in 0.1M phosphate buffer, and then frozen in isopentane at −30° C. Serial sections (35 um thick) were prepared on a cryostat, and stored in cryoprotective solution (0.1M phosphate buffer: ethyleneglycol:glycerol 30:40:30) at −20° C. […] Staining was quantified using software provided by the manufacturer (Zeiss AxioVision). GFAP and Mac1 staining was quantified in 3 different areas on each of 4 serial sections for each animal (n=3 or 4 for Mac1; n=7 or 9 for GFAP staining) The data was average area stained per section (as % total area) from DSP4-treated (n=3 for Mac1; n=7 for GFAP) and vehicle-treated (n=4 for Mac1; n=9 for GFAP) mice. […]

Another assay relates to IκBα. Put plainly: QPCR of IκBα mRNA in frontal cortex of DSP4-treated rats. The assay is classed as in vivo, rat. Here is the method:
In this experiment, the effects of DSP4 on tyrosine hydroxylase (TH) and IkBα expression were analyzed. Adult rat Sprague Dawley rats were treated with the selective neurotoxin DSP4 to lesion locus ceruleus (LC) noradrenergic neurons and deplete cortical NA levels as described in Example 1.
RNA samples from control or DSP4-treated rats (n=4 each) were converted to cDNA and analyzed by QPCR for relative levels of tyrosine hydroxylase (TH) (FIG. 6A) in the locus ceruleus (LC).
Total cytoplasmic RNA from tissues was prepared from cells using TRIZOL reagent according to manufacturer procedures (Invitrogen/GIBCO); aliquots were converted to cDNA using random hexamer primers, and mRNA levels were estimated by quantitative touchdown PCR (QPCR). Conditions were 35 cycles of denaturation at 94° C. for 10 s; annealing at 58-64° C. for 15 s; and extension at 72° C. for 20 s on a Corbett Rotorgene Real-Time PCR unit (Corbett, Australia). The PCR mastermix contained SYBR Green (1 μl diluted 1:10,000 SybrGreen I 10,000× concentrate, Molecular Probes, Eugene, Oreg.). Relative mRNA concentrations were calculated from the takeoff point of reactions using manufacturer's software. Melting curve analysis and agarose gel electrophoresis were performed to ensure production of single and corrected size products. […]

For another assay, the system named is EAE mice. The experiment in a line: NA depletion with DSP4 in EAE (MOG35-55 immunized mice). Format: in vivo. Particulars: DSP4 50 mg/kg i.p. twice one week apart, MOG immunization 2 weeks later; versus vehicle.

Turning to `CCN(CCCl)Cc1ccccc1Br` [DSP4, N-(2-chloroethyl)-N-ethyl-2-bromobenzylamine], the “levels of holoAPP” value with APP is given as “no effect”. The “Mac1 staining, hippocampus and frontal cortex” value in the assay with microglial marker Mac1 (hippocampus effect not statistically significant) is on record as “increased Mac1 staining in both regions”. In addition, the “increase in Mac1 staining, frontal cortex” value with microglial marker Mac1 (versus vehicle, statistically significant) is “approximately 40%”. Besides, the “cortical IκBα mRNA levels” value with IκBα (P<0.01) is listed as 45 % versus control values. Also, in the assay on IκBα (versus control values, n=4, P<0.01), the “reduction of cortical IκBα mRNA levels” value was 55%. Further, the “clinical signs of EAE” value in the assay on EAE mice was “appeared sooner and were more severe”.

Values taken from patent publication US8580776B2, “Compositions and methods for treating neurodegenerating diseases” (The Board of Trustees of the University of Illinois, priority 2007, dated 2013).
